# How the values were obtained:
# Format in all cases: cell-based
# E. coli DH5α = assay: Antibacterial activity: MIC and growth curve against E. coli DH5α in 96-well plate; details: minimal inhibitory concentration against E. coli DH5α; 96-well plate, 5×10^5 CFU/mL, 37° C., judged after 8 h
# In short: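 MIC taken as lowest protein level with no bacterial growth, tracked by A600 every 30 min during 37 °C, 175 rpm culture. Two-fold protein series 50-12.5 μg/mL final, triplicate wells, against 5×10^5 CFU/mL of LB-washed mid-log cells.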
# E. coli BL21 = assay: MIC against Gram-negative bacteria: E. coli BL21; details: 5×10^5 CFU/mL
# In short: (§1)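 Antibacterial activity of purified human EGF domain proteins: two-fold concentration series, triplicate wells, LB broth, 5×10^5 CFU/mL bacteria, 37° C shaking incubation. The lowest concentration without growth defines the MIC.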
# Pseudomonas aeruginosa = assay: MIC against Gram-negative bacteria: Pseudomonas aeruginosa; details: 5×10^5 CFU/mL
# In short: as §1
# Klebsiella pneumonia = assay: MIC against Gram-negative bacteria: Klebsiella pneumonia; details: 5×10^5 CFU/mL
# In short: as §1
# Enterobacter cloacae = assay: MIC against Gram-negative bacteria: Enterobacter cloacae; details: 5×10^5 CFU/mL
# In short: as §1
# Aeromonas hydrophila = assay: MIC against Gram-negative bacteria: Aeromonas hydrophila; details: 5×10^5 CFU/mL
# In short: as §1
# Citrobacter diversus = assay: MIC against Gram-negative bacteria: Citrobacter diversus; details: 5×10^5 CFU/mL
# In short: as §1
# Moraxella catarrhalis = assay: MIC against Gram-negative bacteria: Moraxella catarrhalis; details: 5×10^5 CFU/mL
# In short: as §1
# Proteus mirabilis = assay: MIC against Gram-negative bacteria: Proteus mirabilis; details: 5×10^5 CFU/mL
# In short: as §1
# Proteus vulgaris = assay: MIC against Gram-negative bacteria: Proteus vulgaris; details: 5×10^5 CFU/mL
# In short: as §1
# Serratia marcescens = assay: MIC against Gram-negative bacteria: Serratia marcescens; details: 5×10^5 CFU/mL
# In short: as §1
# [1] = E. coli BL21, 96-well plate, 37° C., 10 h
# [2] = Pseudomonas aeruginosa, 96-well plate, 37° C., 10 h
# [3] = Klebsiella pneumonia, 96-well plate, 37° C., 10 h
# [4] = Enterobacter cloacae, 96-well plate, 37° C., 10 h
# [5] = Aeromonas hydrophila, 96-well plate, 37° C., 10 h
# [6] = Citrobacter diversus, 96-well plate, 37° C., 10 h
# [7] = Moraxella catarrhalis, 96-well plate, 37° C., 10 h
# [8] = Proteus mirabilis, 96-well plate, 37° C., 10 h
# [9] = Proteus vulgaris, 96-well plate, 37° C., 10 h
# [10] = Serratia marcescens, 96-well plate, 37° C., 10 h
# [11] = 10 h cultivation at 37° C., two-fold serial dilution
substance,measurement,setting,value
PRT677 (ETDECRLNQNICGHGECVPGPPDYSCHCNPGYRSHPQHRYCV; listed as Homo sapiens),MIC,E. coli DH5α,50 µg/mL
same,MIC E. coli BL21,"E. coli BL21; 96-well plate, 37° C., 10 h",25 µg/mL
same,MIC P. aeruginosa,"Pseudomonas aeruginosa; 96-well plate, 37° C., 10 h",12.5 µg/mL
same,MIC K. pneumonia,"Klebsiella pneumonia; 96-well plate, 37° C., 10 h",50 µg/mL
same,MIC E. cloacae,"Enterobacter cloacae; 96-well plate, 37° C., 10 h",25 µg/mL
same,MIC A. hydrophila,"Aeromonas hydrophila; 96-well plate, 37° C., 10 h",12.5 µg/mL
same,MIC C. diversus,"Citrobacter diversus; 96-well plate, 37° C., 10 h",25 µg/mL
same,MIC M. catarrhalis,"Moraxella catarrhalis; 96-well plate, 37° C., 10 h",25 µg/mL
same,MIC P. mirabilis,"Proteus mirabilis; 96-well plate, 37° C., 10 h",50 µg/mL
same,MIC P. vulgaris,"Proteus vulgaris; 96-well plate, 37° C., 10 h",12.5 µg/mL
same,MIC S. marcescens,"Serratia marcescens; 96-well plate, 37° C., 10 h",50 µg/mL
PRT483 (DCRAVYDRYSDDFCSGHGQCNCGRCDCKAGWYGKKCE; listed as Homo sapiens),MIC,E. coli DH5α,12.5 µg/mL
same,MIC against E. coli BL21,"E. coli BL21; 96-well plate, 37° C., 10 h",25 µg/mL
same,MIC against P. aeruginosa,"Pseudomonas aeruginosa; 96-well plate, 37° C., 10 h",50 µg/mL
same,MIC against K. pneumonia,"Klebsiella pneumonia; 96-well plate, 37° C., 10 h",25 µg/mL
same,MIC against E. cloacae,"Enterobacter cloacae; 96-well plate, 37° C., 10 h",12.5 µg/mL
same,MIC against A. hydrophila,"Aeromonas hydrophila; 96-well plate, 37° C., 10 h",25 µg/mL
same,MIC against C. diversus,"Citrobacter diversus; 96-well plate, 37° C., 10 h",50 µg/mL
same,MIC against M. catarrhalis,"Moraxella catarrhalis; 96-well plate, 37° C., 10 h",25 µg/mL
same,MIC against P. mirabilis,"Proteus mirabilis; 96-well plate, 37° C., 10 h",12.5 µg/mL
same,MIC against P. vulgaris,"Proteus vulgaris; 96-well plate, 37° C., 10 h",25 µg/mL
same,MIC against S. marcescens,"Serratia marcescens; 96-well plate, 37° C., 10 h",50 µg/mL
PRT624 (CRCSPLGAASAQCHENGTCVCRPGFEGYKCDRCHDNFFLTADGTHCQQC; listed as Homo sapiens),MIC,E. coli DH5α,25 µg/mL
same,MIC E. coli BL21,"E. coli BL21; 96-well plate, 37° C., 10 h",100 µg/mL
same,MIC P. aeruginosa,"Pseudomonas aeruginosa; 96-well plate, 37° C., 10 h",25 µg/mL
same,MIC K. pneumonia,"Klebsiella pneumonia; 96-well plate, 37° C., 10 h",50 µg/mL
same,MIC E. cloacae,"Enterobacter cloacae; 96-well plate, 37° C., 10 h",25 µg/mL
same,MIC A. hydrophila,"Aeromonas hydrophila; 96-well plate, 37° C., 10 h",12.5 µg/mL
same,MIC C. diversus,"Citrobacter diversus; 96-well plate, 37° C., 10 h",25 µg/mL
same,MIC M. catarrhalis,"Moraxella catarrhalis; 96-well plate, 37° C., 10 h",12.5 µg/mL
same,MIC P. mirabilis,"Proteus mirabilis; 96-well plate, 37° C., 10 h",25 µg/mL
same,MIC P. vulgaris,"Proteus vulgaris; 96-well plate, 37° C., 10 h",12.5 µg/mL
same,MIC S. marcescens,"Serratia marcescens; 96-well plate, 37° C., 10 h",25 µg/mL
PRT1314 (ARNPCTDGHRGGCSEHANCLSTGLNTRRCECHAGYVGDGLQCL; listed as Homo sapiens),MIC,E. coli DH5α,12.5 µg/mL
same,MIC against E. coli BL21,E. coli BL21; [1],50 µg/mL
same,MIC against P. aeruginosa,Pseudomonas aeruginosa; [2],12.5 µg/mL
same,MIC against K. pneumonia,Klebsiella pneumonia; [3],50 µg/mL
same,MIC against E. cloacae,Enterobacter cloacae; [4],12.5 µg/mL
same,MIC against A. hydrophila,Aeromonas hydrophila; [5],50 µg/mL
same,MIC against C. diversus,Citrobacter diversus; [6],12.5 µg/mL
same,MIC against M. catarrhalis,Moraxella catarrhalis; [7],12.5 µg/mL
same,MIC against P. mirabilis,Proteus mirabilis; [8],12.5 µg/mL
same,MIC against P. vulgaris,Proteus vulgaris; [9],12.5 µg/mL
same,MIC against S. marcescens,Serratia marcescens; [10],12.5 µg/mL
PRT1184 (NPNDCLPDPCHSRGRCYDLVNDFYCACDDGWKGKTCH; listed as Homo sapiens),MIC,E. coli DH5α,50 µg/mL
same,MIC E. coli BL21,E. coli BL21; [11],25 µg/mL
same,MIC P. aeruginosa,Pseudomonas aeruginosa; [11],12.5 µg/mL
same,MIC K. pneumonia,Klebsiella pneumonia; [11],25 µg/mL
same,MIC E. cloacae,Enterobacter cloacae; [11],50 µg/mL
same,MIC A. hydrophila,Aeromonas hydrophila; [11],12.5 µg/mL
same,MIC C. diversus,Citrobacter diversus; [11],25 µg/mL
same,MIC M. catarrhalis,Moraxella catarrhalis; [11],50 µg/mL
same,MIC P. mirabilis,Proteus mirabilis; [11],25 µg/mL
same,MIC P. vulgaris,Proteus vulgaris; [11],12.5 µg/mL
same,MIC S. marcescens,Serratia marcescens; [11],25 µg/mL
PRT573 (CPCPDGPDSGRQFARSCYQDPVTLQLACVCDPGYIGSRCDDCASGYFGNPSEVGGSCQP; listed as Homo sapiens),MIC,E. coli DH5α,25 µg/mL
same,MIC against E. coli BL21,"E. coli BL21; 96-well plate, 37° C., 10 h",12.5 µg/mL
same,MIC against P. aeruginosa,"Pseudomonas aeruginosa; 96-well plate, 37° C., 10 h",25 µg/mL
same,MIC against K. pneumonia,"Klebsiella pneumonia; 96-well plate, 37° C., 10 h",12.5 µg/mL
same,MIC against E. cloacae,"Enterobacter cloacae; 96-well plate, 37° C., 10 h",25 µg/mL
same,MIC against A. hydrophila,"Aeromonas hydrophila; 96-well plate, 37° C., 10 h",12.5 µg/mL
same,MIC against C. diversus,"Citrobacter diversus; 96-well plate, 37° C., 10 h",12.5 µg/mL
same,MIC against M. catarrhalis,"Moraxella catarrhalis; 96-well plate, 37° C., 10 h",50 µg/mL
same,MIC against P. mirabilis,"Proteus mirabilis; 96-well plate, 37° C., 10 h",12.5 µg/mL
same,MIC against P. vulgaris,"Proteus vulgaris; 96-well plate, 37° C., 10 h",50 µg/mL
same,MIC against S. marcescens,"Serratia marcescens; 96-well plate, 37° C., 10 h",12.5 µg/mL
PRT1290 (KCNPCLSNPCKNDGTCNSDPVDFYRCTCPYGFKGQDCD; listed as Homo sapiens),MIC,E. coli DH5α,50 µg/mL
same,MIC against E. coli BL21,E. coli BL21; [1],12.5 µg/mL
same,MIC against P. aeruginosa,Pseudomonas aeruginosa; [2],50 µg/mL
same,MIC against K. pneumonia,Klebsiella pneumonia; [3],12.5 µg/mL
same,MIC against E. cloacae,Enterobacter cloacae; [4],50 µg/mL
same,MIC against A. hydrophila,Aeromonas hydrophila; [5],25 µg/mL
same,MIC against C. diversus,Citrobacter diversus; [6],12.5 µg/mL
same,MIC against M. catarrhalis,Moraxella catarrhalis; [7],25 µg/mL
same,MIC against P. mirabilis,Proteus mirabilis; [8],50 µg/mL
same,MIC against P. vulgaris,Proteus vulgaris; [9],12.5 µg/mL
same,MIC against S. marcescens,Serratia marcescens; [10],12.5 µg/mL

# From patent publication US9833497B2, “Human originated EGF domain proteins and use of the same” (CHENGDU SOURCEBIO LIMITED-LIABILITY COMPANY, priority 2013, dated 2017)
